Where two headings read alike, the source gives them in different places.

For data set [1], the system named is SARS-CoV-2. Further details: method as in PMID 33290767, PMID 35456990, PMID 33671463. The note with it: Vero cells; read-out: IC50 against SARS-CoV-2; cited from earlier work.
A short description of data set [2]: in vitro.
Data set [3] can be described thus: in vitro. As to conditions: African green monkey.
For data set [4], the target named is SARS-CoV-2 2′-O-MTase (Nsp10–16) (Severe acute respiratory syndrome coronavirus 2, UniProt P0DTD1). Briefly: MTaseGlo coupled assay of Nsp10–16 RNA methyltransferase activity. The note with it: 25 nM Nsp10–16, 300 nM Cap-0 RNA, 5 µM SAM, 15 min; read-out: 2′-O-MTase Inhibition IC50. It is filed as biochemical.
The subject of data set [5] is SARS-CoV-2. The data set is described as follows: Anti-SARS-CoV-2 virus yield reduction assay (qRT-PCR) on Vero cells. As to conditions: for Anti-SARS-CoV-2 Activity, % Inhibition at 10 µM: 0.1 MOI, virus yield reduction qRT-PCR; for EC50: read-out: Anti-SARS-CoV-2 Activity, EC50, antiviral dose–response, 2 days post-treatment.
Data set [6] has as its target SARS-CoV-2 2′-O-MTase. Further details: method as in PMID 33874769. As to conditions: control nucleoside-based methyltransferase inhibitor; read-out: 2′-O-MTase Inhibition IC50; cited from earlier work.
Setting [7] is: peripheral blood mononuclear (PBM) cells.

`C=C(C)[C@@H]1CCC(C)=C[C@H]1c1c(O)cc(CCCCC)cc1O` [CBD, cannabidiol]: in data set [1], the IC50 is 7.9 µM.
`Cc1ccc2c(c1)-c1c(ccc(C(=O)c3ccc(O)cc3O)c1O)OC2(C)C` [CPM-1, (2,4-dihydroxyphenyl)(1-hydroxy-6,6,9-trimethyl-6H-benzo[c]chromen-2-yl)methanone]: in data set [2], the CC50 is greater than 100 µM. The CC50 in data set [3] is greater than 100 µM. Further, the 50% inhibitory concentration (IC50) in data set [4] came to 1.5 ± 0.2 µM. In addition, in data set [5], the “Anti-SARS-CoV-2 Activity, % Inhibition at 10 µM” value is recorded as 98.9% and the EC50 worked out at 7.65 µM.
`Cc1ccc2c(c1)-c1cc(C(=O)c3ccc(O)cc3O)c(O)cc1OC2(C)C` [CPM-2, (2,4-dihydroxyphenyl)(3-hydroxy-6,6,9-trimethyl-6H-benzo[c]chromen-2-yl)methanone] showed a CC50 in data set [2] of 41.2 µM. Besides, the CC50 in data set [3] was 55.4 µM. Moreover, the 50% inhibitory concentration (IC50) in data set [4] was 6.7 ± 0.5 µM. Further, in data set [5], the “Anti-SARS-CoV-2 Activity, % Inhibition at 10 µM” value worked out at 98.1% and the EC50 worked out at 8.6 µM.
As to `CCC(CC)COC(=O)[C@H](C)N[P@](=O)(OC[C@H]1O[C@@](C#N)(c2ccc3c(N)ncnn23)[C@H](O)[C@@H]1O)Oc1ccccc1` [Remdesivir, reference compound], the CC50 in data set [2] (setting [7]) came out at 2 µM. Also, in data set [3] (Vero cells (kidney)), the CC50 is greater than 100 µM. In data set [5], the “Anti-SARS-CoV-2 Activity, % Inhibition at 10 µM” value was determined as 99.9% and the EC50 amounted to 2.3 µM.
Turning to `Nc1ncnc2c1ncn2[C@@H]1O[C@H](C[C@@H](N)CC[C@H](N)C(=O)O)[C@@H](O)[C@H]1O` [Sinefungin], in data set [6], the IC50 was 3.4 ± 0.4 µM.
Take `CC1=CC[C@@H]2[C@@H](C1)c1c(ccc(C(=O)c3ccc(O)cc3O)c1O)OC2(C)C` [TPM-1, (2,4-dihydroxyphenyl)((6aR,10aR)-1-hydroxy-6,6,9-trimethyl-6a,7,10,10a-tetrahydro-6H-benzo[c]chromen-2-yl)methanone]: the CC50 in data set [2] (setting [7]) worked out at 59.2 µM. Also, the CC50 in data set [3] (Vero cells (kidney)) came out at 13.2 µM. Besides, the IC50 in data set [4] was 2.8 ± 0.5 µM. Moreover, in data set [5], the “Anti-SARS-CoV-2 Activity, % Inhibition at 10 µM” value was 99.3% and the concentration giving a half-maximal response (EC50) is 4.3 µM.
For `CC1=CC[C@@H]2[C@@H](C1)c1cc(C(=O)c3ccc(O)cc3O)c(O)cc1OC2(C)C` [TPM-2, (2,4-dihydroxyphenyl)((6aR,10aR)-3-hydroxy-6,6,9-trimethyl-6a,7,10,10a-tetrahydro-6H-benzo[c]chromen-2-yl)methanone], the CC50 in data set [2] (setting [7]) came out at 34.9 µM. The CC50 in data set [3] (Vero cells (kidney)) was found to be 45.2 µM. Also, in data set [4], the half-inhibitory concentration (IC50) turned out to be 6.4 ± 1.5 µM. Also, in data set [5], the “Anti-SARS-CoV-2 Activity, % Inhibition at 10 µM” value worked out at 98.9% and the EC50 amounted to 7.8 µM.
Turning to `CCCCCc1cc(O)c2c(c1)OC(C)(C)[C@@H]1CCC(C)=C[C@@H]21` [Δ^9-THC, delta-9-tetrahydrocannabinol], in data set [1], the half-inhibitory concentration (IC50) is 10.3 µM.
